Test results as given in the NIST ThermoML archive (doi:10.1016/j.jct.2015.02.011).
Numbers after ± are expanded uncertainties.

Experiments:
[1] = 100.7 kPa, Liquid; for speed of sound: Frequency=3 MHz, Sing-around technique in a fixed-path interferometer; for mass density: Vibrating tube method
[2] = refractive index (Na D-line) (dimensionless); settings: 100.7 kPa, Liquid, Standard Abbe refractometry
[3] = xn = mol fraction of the nth substance listed; settings: 100.7 kPa, Liquid, x2 = 0; for speed of sound: Frequency=3 MHz, Sing-around technique in a fixed-path interferometer; for mass density: Vibrating tube method
[4] = refractive index (Na D-line) (dimensionless); xn = mol fraction of the nth substance listed; settings: 100.7 kPa, Liquid, Standard Abbe refractometry, x2 = 0

CCCCn1cc[n+](C)c1.F[P-](F)(F)(F)(F)F [1-butyl-3-methylimidazolium hexafluorophosphate]
Settings	mass density, [1] [kg/m3]	refractive index, [2]	speed of sound, [1] [m/s]
293.15 K	1370.41 ± 2.2	1.41068 ± 0.0017	1454.6 ± 2.9
298.15 K	1366.26 ± 2.2	1.40943 ± 0.0017	1442.3 ± 2.9
303.15 K	1362.13 ± 2.2	1.40818 ± 0.0017	1430.2 ± 2.9
308.15 K	1357.86 ± 2.2	1.40693 ± 0.0017	1418.4 ± 2.9
313.15 K	1353.88 ± 2.2	1.40567 ± 0.0017	1406.7 ± 2.9
318.15 K	1349.88 ± 2.2	1.40443 ± 0.0017	1395.2 ± 2.9
323.15 K	1345.57 ± 2.2	1.40312 ± 0.0017	1384.1 ± 2.9

CCCCCCn1cc[n+](C)c1.F[P-](F)(F)(F)(F)F [1-hexyl-3-methylimidazolium hexafluorophosphate]
Settings	mass density, [1] [kg/m3]	refractive index, [2]	speed of sound, [1] [m/s]
293.15 K	1296.72 ± 2.1	1.41958 ± 0.0017	1437.7 ± 2.9
298.15 K	1292.62 ± 2.1	1.41832 ± 0.0017	1424.3 ± 2.9
303.15 K	1288.61 ± 2.1	1.41692 ± 0.0017	1411.5 ± 2.9
308.15 K	1284.72 ± 2.1	1.41564 ± 0.0017	1399 ± 2.9
313.15 K	1280.82 ± 2.1	1.41422 ± 0.0017	1386.9 ± 2.9
318.15 K	1276.37 ± 2.1	1.41306 ± 0.0017	1375 ± 2.9
323.15 K	1272.45 ± 2.1	1.41175 ± 0.0017	1363.3 ± 2.9

CCCCCCCC[n+]1ccn(C)c1.F[P-](F)(F)(F)(F)F [1-octyl-3-methylimidazolium hexafluorophosphate]
Settings	mass density, [1] [kg/m3]	refractive index, [2]	speed of sound, [1] [m/s]
293.15 K	1238.77 ± 2	1.42441 ± 0.0017	1421.2 ± 2.9
298.15 K	1234.79 ± 2	1.42312 ± 0.0017	1406.5 ± 2.9
303.15 K	1230.84 ± 2	1.42171 ± 0.0017	1392.4 ± 2.9
308.15 K	1227.09 ± 2	1.42029 ± 0.0017	1379 ± 2.9
313.15 K	1223.3 ± 2	1.41888 ± 0.0017	1365.8 ± 2.9
318.15 K	1219.5 ± 2	1.4175 ± 0.0017	1351.2 ± 2.9
323.15 K	1215.42 ± 2	1.41601 ± 0.0017	1338 ± 2.9

C1CCOC1 [tetrahydrofuran]
Settings	mass density, [1] [kg/m3]	refractive index, [2]	speed of sound, [1] [m/s]
293.15 K	888.766 ± 1.6	1.40696 ± 0.0016	1305 ± 2.3
298.15 K	883.297 ± 1.6	1.4042 ± 0.0016	1280.8 ± 2.2
303.15 K	877.809 ± 1.6	1.40157 ± 0.0016	1256.8 ± 2.2
308.15 K	872.279 ± 1.6	1.39885 ± 0.0016	1232.9 ± 2.2
313.15 K	866.713 ± 1.6	1.39623 ± 0.0016	1209.2 ± 2.2
318.15 K	861.106 ± 1.6	1.39349 ± 0.0016	1185.7 ± 2.2
323.15 K	855.456 ± 1.6	1.39083 ± 0.0016	1162.3 ± 2.2

C1CCOC1 [tetrahydrofuran] + CCCCCCCC[n+]1ccn(C)c1.F[P-](F)(F)(F)(F)F
Settings	mass density, [3] [kg/m3]	refractive index, [4]	speed of sound, [3] [m/s]
293.15 K	888.766 ± 1.6	1.40696 ± 0.0016	1305 ± 2.3
298.15 K	883.297 ± 1.6	1.4042 ± 0.0016	1280.8 ± 2.2
303.15 K	877.809 ± 1.6	1.40157 ± 0.0016	1256.8 ± 2.2
308.15 K	872.279 ± 1.6	1.39885 ± 0.0016	1232.9 ± 2.2
313.15 K	866.713 ± 1.6	1.39623 ± 0.0016	1209.2 ± 2.2
318.15 K	861.106 ± 1.6	1.39349 ± 0.0016	1185.7 ± 2.2
323.15 K	855.456 ± 1.6	1.39083 ± 0.0016	1162.3 ± 2.2

C1CCOC1 [tetrahydrofuran] + CCCCCCn1cc[n+](C)c1.F[P-](F)(F)(F)(F)F
Settings	mass density, [3] [kg/m3]	refractive index, [4]	speed of sound, [3] [m/s]
293.15 K	888.766 ± 1.6	1.40696 ± 0.0016	1305 ± 2.3
298.15 K	883.297 ± 1.6	1.4042 ± 0.0016	1280.8 ± 2.2
303.15 K	877.809 ± 1.6	1.40157 ± 0.0016	1256.8 ± 2.2
308.15 K	872.279 ± 1.6	1.39885 ± 0.0016	1232.9 ± 2.2
313.15 K	866.713 ± 1.6	1.39623 ± 0.0016	1209.2 ± 2.2
318.15 K	861.106 ± 1.6	1.39349 ± 0.0016	1185.7 ± 2.2
323.15 K	855.456 ± 1.6	1.39083 ± 0.0016	1162.3 ± 2.2

C1CCOC1 [tetrahydrofuran] + CCCCn1cc[n+](C)c1.F[P-](F)(F)(F)(F)F
Settings	mass density, [3] [kg/m3]	refractive index, [4]	speed of sound, [3] [m/s]
293.15 K	888.766 ± 1.6	1.40696 ± 0.0016	1305 ± 2.3
298.15 K	883.297 ± 1.6	1.4042 ± 0.0016	1280.8 ± 2.2
303.15 K	877.809 ± 1.6	1.40157 ± 0.0016	1256.8 ± 2.2
308.15 K	872.279 ± 1.6	1.39885 ± 0.0016	1232.9 ± 2.2
313.15 K	866.713 ± 1.6	1.39623 ± 0.0016	1209.2 ± 2.2
318.15 K	861.106 ± 1.6	1.39349 ± 0.0016	1185.7 ± 2.2
323.15 K	855.456 ± 1.6	1.39083 ± 0.0016	1162.3 ± 2.2
